The values that follow come from patent publication US4056625A, “Pesticidal compositions containing benzodioxole derivatives and methods of combating pests” (priority 1972, dated 1977).

Values after ≈ are worked out from the molar mass of the structure shown.

Data set [1] has as its system adult female houseflies (Musca domestica). The data set can be described thus: Housefly mortality on treated filter papers (Examples 32-40). Type of data set: in vivo. The settings on record: 100 milligrams per square foot, after 24 hours. The text has this: 9 centimeter diameter filter papers treated with aqueous acetone solutions of each of the compounds
at rates equivalent to 100 milligrams per square foot (100 mgm./0.09 m^2.) of active ingredient were placed in 9 centimeter diameter Petri dishes. Batches of adult female houseflies (Musca domestica) lightly anaesthetised with carbon dioxide were then introduced into the dishes and a glass lid placed over each.

The test system is the same in data set [2]. The data set can be described thus: LC50 against adult female houseflies on filter papers (Example 70). Type of data set: in vivo. The settings on record: for LC50 value: adult female houseflies, 24 hours, 0-6 scale (mg/ft^2); for activity against houseflies (in words): compared with compound 5. As for the experimental part: (§1) If complete kill was obtained at the highest dosage rate, the test was repeated using a logarithmically reducing dose regime until less than 50% mortality was recorded. The LC50 was then calculated from the line of best fit from the data plotted on log/provit analysis paper.
(§2) Similarly LC50 values were obtained against various pests as described in Examples 70-73 where, however, the LC50 values are abbreviated on a 0-6 scale where
LC50 values were obtained for each of Compounds 1, 2, 3, 4, 5 and 6 against adult female houseflies (Musca domestica), of the order Diptera. The tests were carried out by adding acetone solutions of the compounds to 9 cm diameter filter papers in the base of 9 cm diameter crystallising dishes, placing the houseflies in the dishes after the acetone had evaporated, closing the dishes with Petri dish lids and counting the mortality after 24 hours. The highest dosage rate employed was 1000 mg/ft^2 (10.65 g/m^2).

Data set [3] deals with larvae of the sheep maggot fly (Lucilia sericata). Nature of the data set: LC50 against sheep maggot fly larvae on dental rolls (Example 71). Type of data set: in vivo. The settings on record: for LC50: Lucilia sericata, 24 h, read-out: LC50 value; for activity against sheep maggot fly (in words): compared with compound 5. As for the experimental part:
as §1, §2
Similarly, LC50 values were obtained for each of Compounds 1, 2, 3, 4, 5 and 6 against larvae of the sheep maggot fly (Lucilia sericata), of the order Diptera. The tests were carried out by placing newly hatched larvae on dental rolls contained in glass vials and soaked with 1 ml of blood serum containing the compound. The mortality was assessed after 24 hours. The highest dosage rate employed was 1000 ppm.

Data set [4] can be described thus: Acute oral LD50 to rats (Example 76). It is filed as in vivo, rat (Wystar strain). The settings on record: in vivo, po; rat male, by stomach tube in 0.4% tragacanth, up to 5 days. How it is done:
(§3) Mammalian toxicity was assessed by measuring the acute oral LD50 to rats and mice. Componds were dissolved or suspended in a 0.4% tragacanth solution and administered by stomach tube to the test animal. The mice used were 10 to 15 g weanlings of the Carshalton CFW strain whilst the rats were 30 to 40 g weanlings of Wystar strain. Three replicates per dosage rate were employed and the mortality was recorded daily for up to 5 days. The LD50 values were calculated as for those for insecticidal and acaricidal activity above.

In data set [5] the test system is rats. The data set can be described thus: Acute oral LD50 to rats (Example 76). It is filed as in vivo, rat (Wystar strain). The settings on record: rat female, by stomach tube in 0.4% tragacanth, up to 5 days. As for the experimental part:
as §3

Data set [6] in a line: Acute oral LD50 to mice (Example 76). The settings on record: in vivo, mouse, by stomach tube in 0.4% tragacanth, up to 5 days. On the set-up: species or system mouse (Carshalton CFW strain). How it is done: as §3
Data set [7] is described as follows: Solubility. Type of data set: physicochemical. The settings on record: compared with compound 5.
In data set [8] the test system is rats and mice. The data set can be described thus: Mammalian toxicity (overall comparison). The settings on record: compared with compound 5. It is filed as in vivo. As for the experimental part: as §3
The test system of data set [9] is 2nd stage nymph of the German cockroach (Blattella germanica). Nature of the data set: LC50 against German cockroach nymphs in treated glass tubes (Example 69). Type of data set: in vivo. The settings on record: for LC50 value: 2nd stage nymph German cockroach, 48 hours, 0-6 scale. As for the experimental part: Compounds 2 and 4 and also 2,2-dimethyl-1,3- benzodioxol-4-yl N-methylcarbamate(compound 5) and 2,2-dimethyl-1,3-benzodioxol-4-yl N-acetyl-N-methylcarbamate (compound 6) were tested for activity against the 2nd stage nymph of the German cockroach (Blattella germanica), of the order Orthoptera, by treating the walls of glass tubes (9.0 cm high × 4.5 cm diameter) with acetone solutions of the compounds and after the acetone had evaporated caging the insects in the tubes for 48 hours. The highest dosage rate employed was 50 mg/ft^2 (532 mg/m^2).
as §1
The LC50 values are abbreviated on a 0-6 scale where

Data set [10] has as its system larvae of the cattle tick (Boophilus microplus). Nature of the data set: LC50 against cattle tick larvae (Example 72). Type of data set: in vivo. The settings on record: Rhipicephalus microplus, 24 hours, 0-6 scale (ppm). As for the experimental part: as §1, §2
Similarly, LC50 values were obtained for each of Compounds 2 and 4 against larvae of the cattle tick (Boophilus microplus), of the order Acarina. The tests were carried out evaporating 1 ml of an acetone solution of the compound on 9 cm diameter filter papers, folding the papers twice in half after drying to give quadrant shaped packets and sealing the tick larvae therein for 24 hours by means of a paper clip. The highest dosage rate employed was 1000 ppm.

Data set [11] has as its system adult red spider mites (Tetranychus telarius). Nature of the data set: LC50 against adult red spider mites on sprayed French beans (Example 73). Type of data set: in vivo. The settings on record: 48 h, read-out: LC50 value. How it is done:
as §1, §2
Similarly, LC50 values were obtained for each of Compounds 1, 2, 4, 5 and 6 against adult red spider mites (Tetranychus telarius), of the order Acarina. The tests were carried out by spraying infected French beans with a 50% acetone water solution of the compound, containing 500 ppm of Lissapol NX as a wetting agent, and recording the mortality after 48 hours. The highest dosage rate employed was 1000 ppm which is equivalent to 10 lb/acre (11.20 kg/ha).

Data set [12] has as its system German cockroaches (Blattella germanica). Nature of the data set: Persistency against German cockroaches on treated glass plates (Example 74). Type of data set: in vivo. The settings on record: 100 mg/ft^2 (1.065 g/m^2), 2nd stage nymphs, 7 day intervals until less than 50% mortality. How it is done: Persistency was measured against German cockroaches (Blattella germanica), or the order Orthoptera, by treating glass plates with acetone solutions of the compunds listed below to produce a deposit equivalent to 100 mg/ft^2 (1.065 g/m^2), and caging 2nd stage nymph cockroaches on these surfaces for 48 hours at 7 day intervals until less than 50% mortality was recorded.

The subject of data set [13] is sheep maggot fly (Lucila sericata). Nature of the data set: Persistency on sheep against sheep maggot fly. The settings on record: compared with compound 5. Type of data set: in vivo.
For data set [14], the system named is yellow fever mosquito (Aedes aegypti). Nature of the data set: Persistency against yellow fever mosquito on treated glass plates (Example 75). The settings on record: 100 mg/ft^2 (1.065 g/m^2), adult female mosquitos, 7 day intervals until less than 50% mortality. It is filed as in vivo. How it is done:
Persistency was measured against yellow fever mosquito (Aedes aegypti), of the order Diptera, by treating glass plates with acetone solutions of the compounds listed below to produce a deposit equivalent to 100 mg/ft^2 (1.065 g/m^2), and caging adult female mosquitos on these surfaces for 24 hours at 7 day intervals until less than 50% mortality was recorded.

Take `CCCC(=O)N(C)C(=O)Oc1cccc2c1OC(C)(C)O2` [Compound 3, 2,2-dimethyl-1,3-benzodioxol-4-yl N-butyryl-N-methylcarbamate]: in data set [1], the mortality of houseflies entry is “all found to be dead”. Also, in [2], the LC50 value is given as 4 (10-29 mg/ft^2 (107-310 mg/m^2)) and the “activity against houseflies (in words)” value was “as good or better activity against houseflies than does compound 5”. Further, in data set [3], the LC50 (in general, the concentration lethal to half of the exposed cells or organisms) is 3 to 9 µg/mL (≈ 10.2 to 30.7 µM) and the “activity against sheep maggot fly (in words)” value is recorded as “as active as compound 5 against sheep maggot fly”. Also, the LD50 (as a rule, the dose at which mortality reaches 50%) at 120 h in data set [4] is greater than 1000 mg/kg. In [5], the “Acute oral LD50, rat female” value is listed as greater than 1000 mg/kg body wt. For the same compound, in [6], the LD50 at 120 h was 2000 mg/kg. Also, in data set [7], the “solubility in organic solvents (in words)” value (“solubility” below) was “higher solubility in organic solvents than is compound 5”. Moreover, the “mammalian toxicity (in words)” value in [8] was “lower mammalian toxicity than does compound 5”.
`CCCCC(=O)N(C)C(=O)Oc1cccc2c1OC(C)(C)O2` [Compound 4, 2,2-dimethyl-1,3-benzodioxol-4-yl N-pentanoyl-N-methylcarbamate]: the LC50 value is 5 (0.15-0.5 mg/ft^2 (1.6-5.3 mg/m^2)) in data set [9] and 4 (10-29 mg/ft^2 (107-310 mg/m^2)) in [2]. In data set [9], the “activity against cockroaches (in words)” value is “outstandingly good activity against cockroaches”. Moreover, the “activity against houseflies (in words)” value in data set [2] is “as good or better activity against houseflies than does compound 5”. Besides, the LC50 in data set [3] is 30 to 99 µg/mL (≈ 97.6 to 322 µM); in data set [10] it was 30 to 99 µg/mL (≈ 97.6 to 322 µM); in [11], 300 to 1000 µg/mL (≈ 976 to 3250 µM). In addition, in [12], the Persistency is recorded as greater than 35 days. In data set [6], this compound had an LD50 at 120 h of 170 mg/kg. Further, the “persistency on sheep against sheep maggot fly (in words)” value in [13] is on record as “much better persistency on sheep”. Besides, the “solubility” value in [7] is on record as “higher solubility in organic solvents than is compound 5”. In data set [8], the “mammalian toxicity (in words)” value is “lower mammalian toxicity than does compound 5”.
In the case of `CC(=O)N(C)C(=O)Oc1cccc2c1OCO2` [Compound 1, 1,3-benzodioxol-4-yl N-acetyl-N-methylcarbamate], in data set [1], the mortality of houseflies entry is “all found to be dead”. The LC50 value in data set [2] is listed as 5 (3-9 mg/ft^2 (32-106 mg/m^2)). In addition, in data set [2], the “activity against houseflies (in words)” value is “as good or better activity against houseflies than does compound 5”. The values for the LC50 in data set [3] and in data set [11] were 30 to 99 µg/mL (≈ 126 to 417 µM) and 100 to 299 µg/mL (≈ 422 to 1260 µM), respectively. This compound also returned a Persistency in data set [14] of 35 days. Also, the values for the LD50 at 120 h in [4] and in data set [6] were greater than 1000 mg/kg and greater than 4000 mg/kg, respectively. Moreover, the “Acute oral LD50, rat female” value in [5] is listed as greater than 1000 mg/kg body wt. In addition, the “solubility” value in data set [7] is given as “higher solubility in organic solvents than is compound 5”. Further, the “mammalian toxicity (in words)” value in data set [8] was “lower mammalian toxicity than does compound 5”.
As to `CCC(=O)N(C)C(=O)Oc1cccc2c1OC(C)(C)O2` [Compound 2, 2,2-dimethyl-1,3-benzodioxol-4-yl N-propionyl-N-methylcarbamate], the LC50 value in data set [9] is 6 (<0.5 mg/ft^2 (<5.3 mg/m^2)); in [2] it was 5 (3-9 mg/ft^2 (32-106 mg/m^2)). Further, the “activity against cockroaches (in words)” value in data set [9] is reported as “outstandingly good activity against cockroaches”. Further, the “activity against houseflies (in words)” value in data set [2] is on record as “as good or better activity against houseflies than does compound 5”. Also, the LC50 in data set [3] was in the range of 3 to 9 µg/mL (≈ 10.7 to 32.2 µM); in data set [10], 3 to 9 µg/mL (≈ 10.7 to 32.2 µM); in data set [11] it was 300 to 1000 µg/mL (≈ 1070 to 3580 µM). The “activity against sheep maggot fly (in words)” value in data set [3] is “as active as compound 5 against sheep maggot fly”. This compound displayed a Persistency in data set [12] of 21 to 28 days. Moreover, the LD50 at 120 h in data set [6] turned out to be 280 mg/kg. For the same compound, in data set [13], the “persistency on sheep against sheep maggot fly (in words)” value is “much better persistency on sheep”. Moreover, the “solubility” value in data set [7] is given as “higher solubility in organic solvents than is compound 5”. In addition, in data set [8], the “mammalian toxicity (in words)” value was “lower mammalian toxicity than does compound 5”.
